# Measurements published in US5252482A, “Precursor of a C-terminal amidated calcitonin” (Suntory Limited, priority 1982, dated 1993).
# Bridge positions count the residues as written; N and C are the ends. Peptide text beside a SMILES is read from it.
# Tested on: Male Wistar strain rats
# Assay: serum calcium lowering effect in rats
# Assay type: in vivo, rat
# Details: for Change in serum Ca level: 4.5 μg/rat subcutaneously, mean of 4 rats
# Description: The biological activities of HPCT and HPCT Cp(1-3S purified by the above-mentioned procedure were assayed using the serum calcium lowering effect in rats as an indicator.
# Male Wistar strain rats weighing 300 to 350 grams were fasted overnight and used. Each animal was secured in supine position and under ether anesthesia, a polyethylene tube (Intramedic® PE-50, Clay Adams) filled with heparin sodium injection J. P. (Japan-Upjohn) was inserted into the femoral artery of the right hind leg. The rat was fixed in a Boleman cage, and 30 minutes after awakening of the animal, 0.5 ml of the blood was withdrawn through the above polyethylene tube inserted into the femoral artery into a polyethylene centrifugal tube containing 50 units of heparin sodium. Immediately thereafter 0.2 ml of the under-mentioned physiological saline, HPCT. HPCT.Cp(1-33) or swine calcitonin solution was administered subcutaneously at the back of the animal. Then, 1, 2, 4 and 6 hours after the administration, 0.5 ml each of the blood was taken through the above-mentioned polyethylene tube. The blood thus taken was promptly centrifuged on an Eppendorf microcentrifuge (Eppendorf 5414) at 13,000 r.p.m. for 1 minute and the supernatant was used as serum fraction.
# The blood calcium level was measured by the o-cresolphthalein complexon method using a commercial calcium assay kit RM117-K (Ca SET) (Yatron). Fifty μl of the serum was taken in a test tube and stirred with 0.5 ml of the color reagent containing o-cresolphthalein complexon and 8-hydroxyquinoline (RM117-2). Then, 5.0 ml of monoethanolamine borate buffer (RM117-1) was added and stirred. Within 90 minutes thereafter, the absorbance was measured with a self-recording spectrophotometer (Hitachi 320) at the wavelength of 575 mu. The concentration of calcium was calculated from this absorbance value.
# The methods used in the preparation of the physiological saline solution, HPCT solution, HPCT. Cp(1-3S) solution and swine calcitonin solution employed are as follows.
# a) Physiological saline solution: Bovine serum albumin (Sigma®) was dissolved in physiological saline J. P. (Ohtsuka Pharmaceutical Co.) at room temperature to the albumin concentration of 0.1%.
# b) HPCT solution: HPCT was diluted with the above-mentioned physiological saline solution containing 0.1% of albumin to the HPCT concentration of 4.5 μg/0.2 ml.
# c) HPCT Cp(1-33) solution: HPCT Cp(1-33) was diluted with the above-mentioned physiological saline solution containing 0.1% of albumine to the HPCT Cp(1-33) concentration of 20 μg/0.2 ml.
# d) Swine calcitonin solution: Calcital® for Injection (Yamanouchi Pharmaceutical Co.) containing 160 I.U. of calcitonin per vial was dissolved in 40 ml of a vehicle containing 16% of purified gelatin and 0.5% phenol J. P. and the solution was diluted with the above-mentioned physiological saline solution containing 0.1% of albumin. This dilution contained 0.2 or 1 I.U. of swine calcitonin per 0.2 ml.
structure (smiles),measurement,setting,value
CC[C@H](C)[C@H](NC(=O)[C@H](C)NC(=O)[C@@H](NC(=O)[C@H](CCC(N)=O)NC(=O)[C@@H]1CCCN1C(=O)[C@H](Cc1ccccc1)NC(=O)[C@@H](NC(=O)[C@H](Cc1c[nH]cn1)NC(=O)[C@H](Cc1ccccc1)NC(=O)[C@H](CCCCN)NC(=O)[C@H](CC(N)=O)NC(=O)[C@H](Cc1ccccc1)NC(=O)[C@H](CC(=O)O)NC(=O)[C@H](CCC(N)=O)NC(=O)[C@@H](NC(=O)[C@H](Cc1ccc(O)cc1)NC(=O)[C@@H](NC(=O)CNC(=O)[C@H](CC(C)C)NC(=O)[C@@H](NC(=O)[C@@H]1CSSC[C@H](N)C(=O)NCC(=O)N[C@@H](CC(N)=O)C(=O)N[C@@H](CC(C)C)C(=O)N[C@@H](CO)C(=O)N[C@@H]([C@@H](C)O)C(=O)N1)C(C)C)[C@@H](C)O)[C@@H](C)O)[C@@H](C)O)[C@@H](C)O)C(=O)NCC(=O)N[C@H](C(=O)NCC(=O)N[C@@H](C)C(=O)N1CCC[C@H]1C(=O)NCC(=O)N[C@@H](CCCCN)C(=O)N[C@@H](CCCCN)C(=O)N[C@@H](CCCNC(=N)N)C(=O)O)C(C)C [HPCT] (H-CGNLSTCVLGTYTQDFNKFHTFPQTAIGVGAPGKKR-OH; disulfide 1-7),activity equivalent in swine calcitonin,"4.5 μg of HPCT, rat, subcutaneous, serum calcium time course",0.2 I.U.
same,calcitonin activity,calcium level in the rat blood,markedly reducing the calcium level in the rat blood
same,physiological activity compared with swine calcitonin,"rat serum calcium, Table 2, not compared in an equal amount",stronger physiological activity as compared with swine calcitonin
same,serum calcium level,"rat, 4.5 μg subcutaneously, 1 and 2 hours after the administration",dropped with statistical significance
same,Change in serum Ca level,"rat, 1 hour after administration",-0.85 mg/dL
same,Change in serum Ca level,"rat, 2 hours",-0.64 mg/dL
same,Change in serum Ca level,"rat, 3 hours",-0.47 mg/dL
same,Change in serum Ca level,"rat, 4 hours",-0.63 mg/dL
